# Patent publication US8822449B2, “Substituted aminoindanes and analogs thereof, and the pharmaceutical use thereof” (Sanofi, priority 2008, dated 2014)
# Biological target: T1, sodium-proton exchanger of subtype 3 (NHE3) (Homo sapiens, UniProt P48764)
# T1 construct: expressed in transfected cells
# T1 sequence (P48764 26-834): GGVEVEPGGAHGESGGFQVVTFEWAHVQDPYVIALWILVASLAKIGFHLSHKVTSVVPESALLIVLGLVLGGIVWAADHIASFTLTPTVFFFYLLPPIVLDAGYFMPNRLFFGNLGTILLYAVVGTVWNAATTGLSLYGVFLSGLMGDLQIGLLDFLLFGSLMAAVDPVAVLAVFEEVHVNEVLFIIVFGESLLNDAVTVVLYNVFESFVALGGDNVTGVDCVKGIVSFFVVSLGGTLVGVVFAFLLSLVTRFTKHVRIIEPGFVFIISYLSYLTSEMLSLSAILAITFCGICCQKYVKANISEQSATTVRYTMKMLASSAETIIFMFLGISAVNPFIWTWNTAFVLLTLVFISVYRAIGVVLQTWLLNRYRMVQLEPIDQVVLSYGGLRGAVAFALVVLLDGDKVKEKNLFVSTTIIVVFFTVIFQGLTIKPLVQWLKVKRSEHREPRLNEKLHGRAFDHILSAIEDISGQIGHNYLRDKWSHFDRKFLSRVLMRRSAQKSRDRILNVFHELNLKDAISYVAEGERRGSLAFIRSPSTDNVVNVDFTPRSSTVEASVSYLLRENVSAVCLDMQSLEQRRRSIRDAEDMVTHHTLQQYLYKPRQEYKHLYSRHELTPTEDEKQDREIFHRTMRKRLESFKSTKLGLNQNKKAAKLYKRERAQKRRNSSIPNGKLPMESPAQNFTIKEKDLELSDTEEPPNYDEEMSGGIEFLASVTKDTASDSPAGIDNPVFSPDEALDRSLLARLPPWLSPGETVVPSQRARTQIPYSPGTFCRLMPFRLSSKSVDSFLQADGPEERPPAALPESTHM
# Experiment: Recovery of intracellular pH (pHi) after acidification in LAP1 cells stably expressing NHE3 (BCECF fluorescence, FLIPR)
# Assay type: cell-based
# Details: LAP1 cells stably expressing NHE3; pH recovery after acidification; range 1 is % inhibition at 10 μM; read-out: Activity range (inhibitory effect on NHE3)
IC50 [nM],inhibition at 10 µM [%],Structure (SMILES)
1000 to 10000,,"Cc1nnc(C)n1-c1ccc(O[C@H]2c3c(Cl)sc(Cl)c3CC[C@@H]2N2CCCC2)c(F)c1 (racemic) [Example 495, 4-[4-((4S,5S)-1,3-dichloro-5-pyrrolidin-1-yl-4,5,6,7-tetrahydrobenzo[c]thiophen-4-yloxy)-3-fluorophenyl]-3,5-dimethyl-4H-[1,2,4]triazole]"
,20 to 50,"CN1CCN([C@H]2Cc3c(Cl)cc(Cl)cc3[C@@H]2Oc2ccc(-n3ccnc3)cc2)CC1 [Example 297, 1-[trans-(1S,2S)-4,6-dichloro-1-(4-imidazol-1-ylphenoxy)indan-2-yl]-4-methylpiperazine]"
1000 to 10000,,"NCC1CCN([C@@H]2Cc3ccccc3[C@H]2Oc2cccc(NC(N)=O)c2)CC1 (racemic) [Example 235, {3-[rac-trans-(1,2)-2-(4-aminomethylpiperidin-1-yl)indan-1-yloxy]phenyl}urea]"
< 1000,,"CN1CCN(c2ccc(F)c(O[C@H]3c4cc(Cl)cc(Cl)c4C[C@@H]3N3CC[C@@H](O)C3)c2)C1=O [Example 314, 1-{3-[(1S,2S)-4,6-dichloro-2-((R)-3-hydroxypyrrolidin-1-yl)indan-1-yloxy]-4-fluorophenyl}-3-methylimidazolidin-2-one]"
1000 to 10000,,"NCC1CCN([C@@H]2Cc3ccccc3[C@H]2Oc2ccc3c(c2)OCO3)C1 (mixture of isomers) [Example 621, C-{1-[rac-trans-(1,2)-1-(benzo[1,3]dioxol-5-yloxy)indan-2-yl]pyrrolidin-3-yl}methylamine]"
1000 to 10000,,"c1ccc2c(c1)C[C@@H](N1C[C@H]3CNC[C@H]3C1)[C@@H]2Oc1cccc2[nH]ccc12 (racemic) [Example 504, 4-[rac-trans-(1,2)-2-(Hexahydropyrrolo[3,4-c]pyrrol-2-yl)indan-1-yloxy]-1H-indole]"
,20 to 50,"N[C@@H]1CCCN([C@H]2CCc3ccccc3[C@@H]2Oc2ccc(F)c(Cl)c2)C1 (racemic) [Example 52, (R)-1-[rac-trans-(1,2)-1-(3-chloro-4-fluorophenoxy)-1,2,3,4-tetrahydronaphthalen-2-yl]piperidin-3-ylamine]"
1000 to 10000,,"N[C@@H]1CCCN([C@@H]2Cc3ccccc3[C@H]2Oc2ccnc3ccccc23)C1 (racemic) [Example 88, (R)-1-[rac-trans-(1,2)-1-(quinolin-4-yloxy)indan-2-yl]piperidin-3-ylamine]"
< 1000,,"Cc1nnc(C)n1-c1ccc(O[C@H]2c3cc(Cl)cc(Cl)c3C[C@@H]2N2CCCNCC2)c(Cl)c1 [Example 344, 1-{trans-(1S,2S)-4,6-dichloro-1-[2-chloro-4-(3,5-dimethyl-[1,2,4]triazol-4-yl)phenoxy]indan-2-yl}-[1,4]diazepane]"
1000 to 10000,,"CS(=O)(=O)c1ccc(O[C@H]2c3cc(Cl)cc(Cl)c3C[C@@H]2N2CC(O)C2)cc1 [Example 307, 1-[trans-(1S,2S)-4,6-dichloro-1-(4-methanesulfonylphenoxy)indan-2-yl]azetidin-3-ol]"
< 1000,,"NS(=O)(=O)c1ccc(O[C@H]2c3cc(Cl)cc(Cl)c3C[C@@H]2N2CCCC2)cc1 [Example 457, 4-((1S,2S)-4,6-dichloro-2-pyrrolidin-1-ylindan-1-yloxy)benzenesulfonamide]"
1000 to 10000,,"CC(=O)Nc1cccc(O[C@@H]2c3cc(Cl)cc(F)c3C[C@H]2N2CCCC2)c1 (racemic) [Example 660, N-[3-(rac-trans-(1,2)-6-chloro-4-fluoro-2-pyrrolidin-1-ylindan-1-yloxy)phenyl]acetamide]"
1000 to 10000,,"NS(=O)(=O)c1cc(Cl)c(O[C@H]2c3ccccc3C[C@@H]2N2CCCC2)c(Cl)c1 (racemic) [Example 402, 3,5-dichloro-4-(rac-trans-(1,2)-2-pyrrolidin-1-ylindan-1-yloxy)benzenesulfonamide]"
1000 to 10000,,"Cn1ccn(-c2ccc(F)c(O[C@H]3c4cc(F)cc(F)c4C[C@@H]3N3CC[C@@H](O)C3)c2)c1=O [Example 317, 1-{3-[(1S,2S)-4,6-difluoro-2-((R)-3-hydroxypyrrolidin-1-yl)indan-1-yloxy]-4-fluorophenyl}-3-methyl-1,3-dihydroimidazol-2-one]"
1000 to 10000,,"CC1(C)NC(=O)N(c2ccc(Cl)c(O[C@H]3c4cc(Cl)cc(F)c4C[C@@H]3N3CC[C@@H](O)C3)c2)C1=O [Example 436, 3-{4-chloro-3-[(1S,2S)-6-chloro-4-fluoro-2-((R)-3-hydroxypyrrolidin-1-yl)indan-1-yloxy]phenyl}-5,5-dimethylimidazolidine-2,4-dione]"
1000 to 10000,,"NS(=O)(=O)c1ccc(O[C@H]2c3cc(Cl)cc(Cl)c3C[C@@H]2N2CCOCC2)c(Cl)c1Cl (racemic) [Example 358, 2,3-dichloro-4-(rac-trans-(1,2)-4,6-dichloro-2-morpholin-4-ylindan-1-yloxy)benzenesulfonamide]"
< 1000,,"Cc1nnc(C)n1-c1ccc(O[C@H]2c3cc(Cl)cc(Cl)c3C[C@@H]2N2CCCN(C)CC2)c(F)c1 [Example 346, 1-{trans-(1S,2S)-4,6-dichloro-1-[4-(3,5-dimethyl-[1,2,4]triazol-4-yl)-2-fluorophenoxy]indan-2-yl}-4-methyl-[1,4]diazepane]"
< 1000,,"CN1CCCN([C@H]2Cc3c(Cl)cc(Cl)cc3[C@@H]2Oc2ccc(C#N)cc2F)CC1 [Example 556, 4-[trans-(1S,2S)-4,6-dichloro-2-(4-methyl-[1,4]diazepan-1-yl)indan-1-yloxy]-3-fluorobenzonitrile]"
1000 to 10000,,"O=C1OCc2cc(O[C@H]3c4ccccc4C[C@@H]3N3CCCC3)ccc21 (racemic) [Example 571, 5-(rac-trans-(1,2)-2-pyrrolidin-1-ylindan-1-yloxy)-3H-isobenzofuran-1-one]"
1000 to 10000,,"N[C@@H]1CCCN([C@@H]2Cc3ccccc3[C@H]2Oc2ccc(Br)cc2-c2cc[nH]n2)C1 (racemic) [Example 118, (R)-1-{rac-trans-(1,2)-1-[4-bromo-2-(1H-pyrazol-3-yl)phenoxy]indan-2-yl}piperidin-3-ylamine]"
1000 to 10000,,"CN1CCN(S(=O)(=O)c2ccc(O[C@H]3c4cc(Cl)cc(Cl)c4C[C@@H]3N3CC[C@@H](O)C3)cc2)CC1 [Example 742, (R)-1-{trans-(1S,2S)-4,6-Dichloro-1-[4-(4-methyl-piperazine-1-sulfonyl)-phenoxy]-indan-2-yl}-pyrrolidin-3-ol]"
,20 to 50,"CS(=O)(=O)c1ccc(O[C@H]2c3ccccc3CC[C@@H]2N2CCOCC2)cc1 (racemic) [Example 508, 4-[rac-trans-(1,2)-1-(4-methanesulfonylphenoxy)-1,2,3,4-tetrahydronaphthalen-2-yl]morpholine]"
1000 to 10000,,"O[C@@H]1CCN([C@H]2Cc3c(Cl)cc(Cl)cc3[C@@H]2Oc2ccc(-n3ccnc3)cc2)C1 [Example 728, (R)-1-[trans-(1S,2S)-4,6-Dichloro-1-(4-imidazol-1-yl-phenoxy)-indan-2-yl]-pyrrolidin-3-ol]"
,20 to 50,"CS(=O)(=O)c1ccc(O[C@H]2c3ccccc3C[C@@H]2N2CCC[C@@H](NC(=O)C(F)(F)F)C2)cc1 [Example 354, 2,2,2-trifluoro-N-{(R)-1-[trans-(1S,2S)-1-(4-methanesulfonylphenoxy)indan-2-yl]piperidin-3-yl}acetamide]"
< 1000,,"Cc1nnc(C)n1-c1ccc(O[C@H]2c3cc(Cl)cc(Cl)c3C[C@@H]2N2CC[C@@H](O)C2)c(Cl)c1 [Example 122, (R)-1-{trans-(1S,2S)-4,6-dichloro-1-[2-chloro-4-(3,5-dimethyl-[1,2,4]triazol-4-yl)phenoxy]indan-2-yl}pyrrolidin-3-ol]"
1000 to 10000,,"O=C1CCCN1c1cccc(O[C@H]2c3cc(Cl)cc(Cl)c3C[C@@H]2N2CC[C@@H](O)C2)c1 [Example 315, 1-{3-[(1S,2S)-4,6-dichloro-2-((R)-3-hydroxypyrrolidin-1-yl)indan-1-yloxy]phenyl}pyrrolidin-2-one]"
< 1000,,"NC(=O)Nc1cccc(O[C@@H]2c3ccccc3C[C@H]2N2CCC[C@@H](N)C2)c1 (racemic) [Example 231, {3-[rac-trans-(1,2)-2-((R)-3-aminopiperidin-1-yl)indan-1-yloxy]phenyl}urea]"
1000 to 10000,,"CCn1c(C)nn(-c2ccc(O[C@H]3c4cc(Cl)cc(Cl)c4C[C@@H]3N3CC[C@@H](O)C3)cc2)c1=O [Example 737, 2-{4-[trans-(1S,2S)-4,6-Dichloro-2-((R)-3-hydroxy-pyrrolidin-1-yl)-indan-1-yloxy]-phenyl}-4-ethyl-5-methyl-2,4-dihydro-[1,2,4]triazol-3-one]"
< 1000,,"CS(=O)(=O)c1ccc(O[C@H]2c3cc(Cl)ccc3C[C@@H]2N2CCNCC2)cc1 (racemic) [Example 289, 1-[rac-trans-(1,2)-6-chloro-1-(4-methanesulfonylphenoxy)indan-2-yl]piperazine]"
< 1000,,"CC(=O)Nc1cccc(O[C@H]2c3cc(Cl)cc(Cl)c3C[C@@H]2N2CCCNCC2)c1 (racemic) [Example 644, N-[3-(rac-trans-(1,2)-4,6-dichloro-2-[1,4]diazepan-1-ylindan-1-yloxy)phenyl]acetamide]"
